Source: PubChem BioAssay (NCI)
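Protocol summary: plate cells (96-well), add compound at 5 concentrations, incubate 48 h, interpolate endpoints linearly. GI50: concentration for 50% inhibition of growth. At the TGI there is no net growth.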

Assays:
Assay in all cases: NCI tumour cell line growth inhibition, 48 h
CCRF-CEM leukemia = system: CCRF-CEM leukemia
HCT-15 colon = system: HCT-15 colon
SK-OV-3 ovarian = system: SK-OV-3 ovarian
UACC-62 melanoma = system: UACC-62 melanoma
SF-268 CNS = system: SF-268 CNS
SK-MEL-28 melanoma = system: SK-MEL-28 melanoma
OVCAR-5 ovarian = system: OVCAR-5 ovarian
NCI/ADR-RES ovarian = system: NCI/ADR-RES ovarian
A498 renal = system: A498 renal
CAKI-1 renal = system: CAKI-1 renal
HOP-62 NSCLC = system: HOP-62 NSCLC
OVCAR-8 ovarian = system: OVCAR-8 ovarian
MALME-3M melanoma = system: MALME-3M melanoma
SNB-75 CNS = system: SNB-75 CNS
K-562 leukemia = system: K-562 leukemia
SF-295 CNS = system: SF-295 CNS
OVCAR-4 ovarian = system: OVCAR-4 ovarian
HCC-2998 colon = system: HCC-2998 colon
T-47D breast = system: T-47D breast
NCI-H226 lung = system: NCI-H226 lung
RPMI-8226 leukemia = system: RPMI-8226 leukemia
U251 CNS = system: U251 CNS
RXF 393 renal = system: RXF 393 renal
SK-MEL-5 melanoma = system: SK-MEL-5 melanoma
DU-145 prostate = system: DU-145 prostate
KM12 colon = system: KM12 colon
SK-MEL-2 melanoma = system: SK-MEL-2 melanoma
UO-31 renal = system: UO-31 renal
HOP-92 NSCLC = system: HOP-92 NSCLC
ACHN renal = system: ACHN renal
COLO 205 colon = system: COLO 205 colon
BT-549 breast = system: BT-549 breast
A549 NSCLC = system: A549 NSCLC
PC-3 prostate = system: PC-3 prostate
HT29 colon = system: HT29 colon
UACC-257 melanoma = system: UACC-257 melanoma
SNB-19 CNS = system: SNB-19 CNS
MCF7 breast = system: MCF7 breast
NCI-H23 lung = system: NCI-H23 lung
OVCAR-3 ovarian = system: OVCAR-3 ovarian
HS 578T breast = system: HS 578T breast
M14 melanoma = system: M14 melanoma
MDA-MB-231 breast = system: MDA-MB-231 breast
NCI-H522 lung = system: NCI-H522 lung
MOLT-4 leukemia = system: MOLT-4 leukemia
EKVX NSCLC = system: EKVX NSCLC
LOX IMVI melanoma = system: LOX IMVI melanoma
SF-539 CNS = system: SF-539 CNS
SN12C renal = system: SN12C renal
HL-60(TB) leukemia = system: HL-60(TB) leukemia

Question: For `COc1cc2c(cc1OCCCCCN1CCN(c3ncnc4ccccc34)CC1)N=CC1CCCN1C2=O` (stereo unspecified), which GI50 (CCRF-CEM leukemia) is on record?
Answer: 13.3 nM

Question: What about the TGI (CCRF-CEM leukemia) of the same compound?
Answer: 72.7 nM

Question: What about the GI50 (HCT-15 colon) of the same compound?
Answer: 206 nM

Question: And the TGI (HCT-15 colon)?
Answer: 4090 nM

Question: And the GI50 (SK-OV-3 ovarian)?
Answer: 33.4 nM

Question: And the TGI (SK-OV-3 ovarian)?
Answer: 379 nM

Question: What about the GI50 (UACC-62 melanoma) of the same compound?
Answer: 19.6 nM

Question: What about the TGI (UACC-62 melanoma) of the same compound?
Answer: 38.3 nM

Question: And the GI50 (SF-268 CNS)?
Answer: 34.9 nM

Question: What about the TGI (SF-268 CNS) of the same compound?
Answer: 2070 nM

Question: And the GI50 (SK-MEL-28 melanoma)?
Answer: 26.4 nM

Question: And the TGI (SK-MEL-28 melanoma)?
Answer: 56.9 nM

Question: And the GI50 (OVCAR-5 ovarian)?
Answer: 35.9 nM

Question: What about the TGI (OVCAR-5 ovarian) of the same compound?
Answer: 14700 nM

Question: What about the GI50 (NCI/ADR-RES ovarian) of the same compound?
Answer: 378 nM

Question: And the TGI (NCI/ADR-RES ovarian)?
Answer: > 36400 nM

Question: And the GI50 (A498 renal)?
Answer: 18 nM

Question: What about the TGI (A498 renal) of the same compound?
Answer: 34 nM

Question: And the GI50 (CAKI-1 renal)?
Answer: 29.2 nM

Question: What about the TGI (CAKI-1 renal) of the same compound?
Answer: 1170 nM

Question: And the GI50 (HOP-62 NSCLC)?
Answer: 25.7 nM

Question: What about the TGI (HOP-62 NSCLC) of the same compound?
Answer: 358 nM

Question: What about the GI50 (OVCAR-8 ovarian) of the same compound?
Answer: 33.4 nM

Question: What about the TGI (OVCAR-8 ovarian) of the same compound?
Answer: > 81900 nM

Question: What about the GI50 (MALME-3M melanoma) of the same compound?
Answer: 30.3 nM

Question: And the TGI (MALME-3M melanoma)?
Answer: 61.8 nM

Question: What about the GI50 (SNB-75 CNS) of the same compound?
Answer: 16.8 nM

Question: What about the TGI (SNB-75 CNS) of the same compound?
Answer: 82.3 nM

Question: And the GI50 (K-562 leukemia)?
Answer: < 17.4 nM

Question: And the GI50 (SF-295 CNS)?
Answer: 22.6 nM

Question: And the TGI (SF-295 CNS)?
Answer: 67.1 nM

Question: What about the GI50 (OVCAR-4 ovarian) of the same compound?
Answer: 49.8 nM

Question: What about the TGI (OVCAR-4 ovarian) of the same compound?
Answer: 2280 nM

Question: And the GI50 (HCC-2998 colon)?
Answer: 17.8 nM

Question: And the TGI (HCC-2998 colon)?
Answer: 34.9 nM

Question: What about the GI50 (T-47D breast) of the same compound?
Answer: 13.9 nM

Question: And the TGI (T-47D breast)?
Answer: 42.8 nM

Question: And the GI50 (NCI-H226 lung)?
Answer: 20.3 nM

Question: And the TGI (NCI-H226 lung)?
Answer: 47.9 nM

Question: And the GI50 (RPMI-8226 leukemia)?
Answer: < 13.8 nM

Question: And the TGI (RPMI-8226 leukemia)?
Answer: 35 nM

Question: And the GI50 (U251 CNS)?
Answer: 25.2 nM

Question: What about the TGI (U251 CNS) of the same compound?
Answer: 3980 nM

Question: What about the GI50 (RXF 393 renal) of the same compound?
Answer: 25.3 nM

Question: And the TGI (RXF 393 renal)?
Answer: 45.4 nM

Question: And the GI50 (SK-MEL-5 melanoma)?
Answer: 18 nM

Question: What about the TGI (SK-MEL-5 melanoma) of the same compound?
Answer: 33.8 nM

Question: What about the GI50 (DU-145 prostate) of the same compound?
Answer: 27.1 nM

Question: What about the TGI (DU-145 prostate) of the same compound?
Answer: 970 nM

Question: And the GI50 (KM12 colon)?
Answer: 28.9 nM

Question: What about the TGI (KM12 colon) of the same compound?
Answer: 952 nM

Question: What about the GI50 (SK-MEL-2 melanoma) of the same compound?
Answer: 42.5 nM

Question: What about the TGI (SK-MEL-2 melanoma) of the same compound?
Answer: 709 nM

Question: And the GI50 (UO-31 renal)?
Answer: 30 nM

Question: And the TGI (UO-31 renal)?
Answer: 198 nM

Question: And the GI50 (HOP-92 NSCLC)?
Answer: 22.4 nM

Question: And the TGI (HOP-92 NSCLC)?
Answer: 69 nM

Question: And the GI50 (ACHN renal)?
Answer: 52.3 nM

Question: What about the TGI (ACHN renal) of the same compound?
Answer: 4150 nM

Question: What about the GI50 (COLO 205 colon) of the same compound?
Answer: 18.7 nM

Question: What about the TGI (COLO 205 colon) of the same compound?
Answer: 40.8 nM

Question: What about the GI50 (BT-549 breast) of the same compound?
Answer: 22.9 nM

Question: And the TGI (BT-549 breast)?
Answer: 62.8 nM

Question: What about the GI50 (A549 NSCLC) of the same compound?
Answer: 30.7 nM

Question: And the TGI (A549 NSCLC)?
Answer: 25800 nM

Question: What about the GI50 (PC-3 prostate) of the same compound?
Answer: 21.8 nM

Question: And the TGI (PC-3 prostate)?
Answer: 154 nM

Question: And the GI50 (HT29 colon)?
Answer: 27.5 nM

Question: What about the TGI (HT29 colon) of the same compound?
Answer: 10800 nM

Question: And the GI50 (UACC-257 melanoma)?
Answer: 73.8 nM

Question: And the TGI (UACC-257 melanoma)?
Answer: 568 nM

Question: What about the GI50 (SNB-19 CNS) of the same compound?
Answer: 33.3 nM

Question: And the TGI (SNB-19 CNS)?
Answer: 3530 nM

Question: And the GI50 (MCF7 breast)?
Answer: 16.2 nM

Question: And the TGI (MCF7 breast)?
Answer: 923 nM

Question: And the GI50 (NCI-H23 lung)?
Answer: 34.2 nM

Question: What about the TGI (NCI-H23 lung) of the same compound?
Answer: 196 nM

Question: What about the GI50 (OVCAR-3 ovarian) of the same compound?
Answer: 22.3 nM

Question: What about the TGI (OVCAR-3 ovarian) of the same compound?
Answer: 51.2 nM

Question: What about the GI50 (HS 578T breast) of the same compound?
Answer: 27.5 nM

Question: What about the TGI (HS 578T breast) of the same compound?
Answer: 84.2 nM

Question: And the GI50 (M14 melanoma)?
Answer: 32 nM

Question: What about the TGI (M14 melanoma) of the same compound?
Answer: 128 nM

Question: What about the GI50 (MDA-MB-231 breast) of the same compound?
Answer: 19.3 nM

Question: And the TGI (MDA-MB-231 breast)?
Answer: 60.4 nM

Question: What about the TGI (NCI-H522 lung) of the same compound?
Answer: 26.9 nM

Question: What about the GI50 (MOLT-4 leukemia) of the same compound?
Answer: 19.4 nM

Question: What about the TGI (MOLT-4 leukemia) of the same compound?
Answer: 70.6 nM

Question: And the GI50 (EKVX NSCLC)?
Answer: 114 nM

Question: What about the TGI (EKVX NSCLC) of the same compound?
Answer: 724 nM

Question: And the GI50 (LOX IMVI melanoma)?
Answer: 16.7 nM

Question: What about the GI50 (SF-539 CNS) of the same compound?
Answer: 26.8 nM

Question: And the TGI (SF-539 CNS)?
Answer: 68.5 nM

Question: What about the GI50 (SN12C renal) of the same compound?
Answer: 30 nM

Question: What about the TGI (SN12C renal) of the same compound?
Answer: 4650 nM

Question: What about the GI50 (HL-60(TB) leukemia) of the same compound?
Answer: 25.4 nM
